Test results published in paper PMC13351981, “A multiscale screening platform for rapid GPCR variant profiling reveals color-tuned JSR1 mutants” (Biophysical Journal, 2025).

Legend:
Test in all cases: UV/Vis absorption by HPLC-SEC diode array after reconstitution and purification
Type in all cases: binding
Details in all cases: 50 uM 9-cis retinal reconstitution; covalent (Schiff base to K321); pH 6.5, 20 C, LMNG/CHS
[1] = target: T1, Jumping Spider Rhodopsin 1 (JSR1) (Hasarius adansoni, UniProt B1B1U5, S199Y)
T1 construct: gene HaRh1; JSR1 WT + C-terminal 3C site, Twin-Strep, TEV, eGFP, His8; Hi5 insect cells (baculovirus); tags removed by HRV 3C; monomer in LMNG/CHS

[2] = target: T2, Jumping Spider Rhodopsin 1 (JSR1) (Hasarius adansoni, UniProt B1B1U5, S199H)
T2 construct: gene HaRh1; JSR1 WT + C-terminal 3C site, Twin-Strep, TEV, eGFP, His8; Hi5 insect cells (baculovirus); tags removed by HRV 3C; monomer in LMNG/CHS

[3] = target: T3, Jumping Spider Rhodopsin 1 (JSR1) (Hasarius adansoni, UniProt B1B1U5, S199F)
T3 construct: gene HaRh1; JSR1 WT + C-terminal 3C site, Twin-Strep, TEV, eGFP, His8; Hi5 insect cells (baculovirus); tags removed by HRV 3C; monomer in LMNG/CHS

[4] = target: T4, Jumping Spider Rhodopsin 1 (JSR1) (Hasarius adansoni, UniProt B1B1U5, S199V)
T4 construct: gene HaRh1; JSR1 WT + C-terminal 3C site, Twin-Strep, TEV, eGFP, His8; Hi5 insect cells (baculovirus); tags removed by HRV 3C; monomer in LMNG/CHS

[5] = target: T5, Jumping Spider Rhodopsin 1 (JSR1) (Hasarius adansoni, UniProt B1B1U5)
T5 construct: gene HaRh1; JSR1 WT + C-terminal 3C site, Twin-Strep, TEV, eGFP, His8; Hi5 insect cells (baculovirus); tags removed by HRV 3C; monomer in LMNG/CHS

[6] = target: T6, Jumping Spider Rhodopsin 1 (JSR1) (Hasarius adansoni, UniProt B1B1U5, S199L)
T6 construct: gene HaRh1; JSR1 WT + C-terminal 3C site, Twin-Strep, TEV, eGFP, His8; Hi5 insect cells (baculovirus); tags removed by HRV 3C; monomer in LMNG/CHS

[7] = target: T7, Jumping Spider Rhodopsin 1 (JSR1) (Hasarius adansoni, UniProt B1B1U5, S199I)
T7 construct: gene HaRh1; JSR1 WT + C-terminal 3C site, Twin-Strep, TEV, eGFP, His8; Hi5 insect cells (baculovirus); tags removed by HRV 3C; monomer in LMNG/CHS
T7 sequence (B1B1U5 entry or part of it S199I): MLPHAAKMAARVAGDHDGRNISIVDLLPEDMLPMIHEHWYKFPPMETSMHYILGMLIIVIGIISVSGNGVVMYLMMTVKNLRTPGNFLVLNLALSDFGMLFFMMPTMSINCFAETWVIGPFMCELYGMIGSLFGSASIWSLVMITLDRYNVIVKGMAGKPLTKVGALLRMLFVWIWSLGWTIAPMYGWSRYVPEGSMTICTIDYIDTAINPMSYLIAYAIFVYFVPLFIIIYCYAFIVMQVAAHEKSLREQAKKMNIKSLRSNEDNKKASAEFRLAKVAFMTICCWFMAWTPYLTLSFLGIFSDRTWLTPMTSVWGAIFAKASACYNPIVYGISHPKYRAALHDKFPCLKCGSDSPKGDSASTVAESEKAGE

T2 sequence (B1B1U5 entry or part of it S199H): as the sequence (B1B1U5 entry or part of it S199I) above, with I199H counted along it
T4 sequence (B1B1U5 entry or part of it S199V): as the sequence (B1B1U5 entry or part of it S199I) above, with I199V counted along it
T5 sequence (B1B1U5 entry or part of it): as the sequence (B1B1U5 entry or part of it S199I) above, with I199S counted along it
T6 sequence (B1B1U5 entry or part of it S199L): as the sequence (B1B1U5 entry or part of it S199I) above, with I199L counted along it
T1 sequence (B1B1U5 entry or part of it S199Y): as the sequence (B1B1U5 entry or part of it S199I) above, with I199Y counted along it
T3 sequence (B1B1U5 entry or part of it S199F): as the sequence (B1B1U5 entry or part of it S199I) above, with I199F counted along it

CC1=C(/C=C/C(C)=C\C=C\C(C)=C\C=O)C(C)(C)CCC1 [9-cis retinal]
UV/Vis absorption by HPLC-SEC diode array after reconstitution and purification [1]: These mutations cause a full deprotonation in the 9-cis retinal-bound ground state | UV/Vis absorption by HPLC-SEC diode array after reconstitution and purification [2]: These mutations cause a full deprotonation in the 9-cis retinal-bound ground state | UV/Vis absorption by HPLC-SEC diode array after reconstitution and purification [3]: These mutations cause a full deprotonation in the 9-cis retinal-bound ground state | UV/Vis absorption by HPLC-SEC diode array after reconstitution and purification [4]: These mutations cause a full deprotonation in the 9-cis retinal-bound ground state | UV/Vis absorption by HPLC-SEC diode array after reconstitution and purification [5]: We observed that all mutants incorporated 9-cis retinal successfully|established workflow with 9-cis retinal-reconstituted JSR1 | UV/Vis absorption by HPLC-SEC diode array after reconstitution and purification [6]: These mutations cause a full deprotonation in the 9-cis retinal-bound ground state | UV/Vis absorption by HPLC-SEC diode array after reconstitution and purification [7]: These mutations cause a full deprotonation in the 9-cis retinal-bound ground state
